Measured values reported in patent publication US7098340B2, “Benzyl sulfonamide derivatives” (Warner Lambert Company LLC, priority 2003, dated 2006).

Target: T1, androgen receptor (Homo sapiens, UniProt P10275)
T1 sequence (P10275 1-920 Q868H): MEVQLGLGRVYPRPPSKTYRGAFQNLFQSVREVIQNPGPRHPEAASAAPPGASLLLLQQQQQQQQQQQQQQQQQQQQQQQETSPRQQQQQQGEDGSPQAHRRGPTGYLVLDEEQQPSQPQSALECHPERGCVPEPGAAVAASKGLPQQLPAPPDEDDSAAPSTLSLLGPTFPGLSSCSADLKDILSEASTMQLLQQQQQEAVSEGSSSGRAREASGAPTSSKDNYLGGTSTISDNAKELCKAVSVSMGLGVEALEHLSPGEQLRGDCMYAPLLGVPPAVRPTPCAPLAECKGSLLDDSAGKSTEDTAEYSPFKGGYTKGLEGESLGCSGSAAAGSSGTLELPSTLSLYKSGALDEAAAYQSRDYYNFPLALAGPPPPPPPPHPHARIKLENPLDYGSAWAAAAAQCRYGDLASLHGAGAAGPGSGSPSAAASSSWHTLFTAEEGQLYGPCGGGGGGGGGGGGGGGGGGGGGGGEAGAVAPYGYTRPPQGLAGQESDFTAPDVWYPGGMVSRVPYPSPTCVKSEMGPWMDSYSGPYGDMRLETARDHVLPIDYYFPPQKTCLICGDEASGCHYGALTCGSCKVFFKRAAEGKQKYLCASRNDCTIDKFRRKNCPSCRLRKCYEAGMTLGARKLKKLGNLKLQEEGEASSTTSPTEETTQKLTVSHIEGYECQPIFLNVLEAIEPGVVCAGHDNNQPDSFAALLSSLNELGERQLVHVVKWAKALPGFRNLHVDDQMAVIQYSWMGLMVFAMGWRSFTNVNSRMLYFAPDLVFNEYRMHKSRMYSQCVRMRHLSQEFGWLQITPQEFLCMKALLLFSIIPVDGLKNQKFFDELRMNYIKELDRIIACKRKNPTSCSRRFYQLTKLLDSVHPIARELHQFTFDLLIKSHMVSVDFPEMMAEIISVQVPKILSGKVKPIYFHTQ
Assay: AR Antagonist Cell Assay (MMTV-luciferase reporter, DHT-stimulated)
Type: cell-based
Conditions: MDA-MB453-MMTV clone 54-19 cells; antagonism of 100 pM DHT, 17 hr, luciferase readout
Summary of the method: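 MDA-MB453 cells stably carrying MMTV-ARE-firefly luciferase, in 1% charcoal-treated serum, preincubated 30 min with compound (10 uM or 1 uM) then stimulated with 100 pM DHT for 17 h at 37° C. Luminescence read; result as % inhibition of DHT fold induction.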

Compound	IC50 [µM]
O=c1cc(C(F)(F)F)c2cc(Cc3ccc(S(=O)(=O)NC4CCc5ccccc54)cc3)ccc2o1 (centres unmarked) [Example 178, N-Indan-1-yl-4-(2-oxo-4-trifluoromethyl-2H-chromen-6-ylmethyl)benzenesulfonamide]	7.74
CC(C)(NS(=O)(=O)c1ccc(Cc2ccc3oc(=O)cc(C(F)(F)F)c3c2)cc1)c1ccccc1 [Example 179, N-(1-Methyl-1-phenylethyl)-4-(2-oxo-4-trifluoromethyl-2H-chromen-6-ylmethyl)benzenesulfonamide]	> 10
O=c1cc(C(F)(F)F)c2cc(Cc3ccc(S(=O)(=O)NCCOc4ccccc4)cc3)ccc2o1 [Example 181, 4-(2-Oxo-4-trifluoromethyl-2H-chromen-6-ylmethyl)-N-(2-phenoxyethyl)-benzenesulfonamide]	6.96
O=c1cc(C(F)(F)F)c2cc(Cc3ccc(S(=O)(=O)NCc4cccc(Cl)c4)cc3)ccc2o1 [Example 186, N-(3-Chlorobenzyl)-4-(2-oxo-4-trifluoromethyl-2H-chromen-6-ylmethyl)benzenesulfonamide]	> 10
COc1ccccc1CCNS(=O)(=O)c1ccc(Cc2ccc3oc(=O)cc(C(F)(F)F)c3c2)cc1 [Example 190, N-[2-(2-Methoxyphenyl)ethyl]-4-(2-oxo-4-trifluoromethyl-2H-chromen-6-ylmethyl)benzenesulfonamide]	5.41
O=c1cc(C(F)(F)F)c2cc(Cc3ccc(S(=O)(=O)NC(CCO)c4ccccc4)cc3)ccc2o1 (centres unmarked) [Example 192, N-(3-Hydroxy-1-phenylpropyl)-4-(2-oxo-4-trifluoromethyl-2H-chromen-6-ylmethyl)benzenesulfonamide]	6.52
O=c1cc(C(F)(F)F)c2cc(Cc3ccc(S(=O)(=O)NC4CCC(O)CC4)cc3)ccc2o1 (centres unmarked) [Example 193, N-(4-Hydroxycyclohexyl)-4-(2-oxo-4-trifluoromethyl-2H-chromen-6-ylmethyl)benzenesulfonamide]	9.11
CSc1ccccc1CNS(=O)(=O)c1ccc(Cc2ccc3oc(=O)cc(C(F)(F)F)c3c2)cc1 [Example 194, N-(2-Methylsulfanylbenzyl)-4-(2-oxo-4-trifluoromethyl-2H-chromen-6-ylmethyl)benzenesulfonamide]	8
O=c1cc(C(F)(F)F)c2cc(Cc3ccc(S(=O)(=O)NCc4ccc(F)cc4Cl)cc3)ccc2o1 [Example 198]	5.93
O=c1cc(C(F)(F)F)c2cc(Cc3ccc(S(=O)(=O)NCc4ccccc4OC(F)F)cc3)ccc2o1 [Example 199, N-(2-Difluoromethoxybenzyl)-4-(2-oxo-4-trifluoromethyl-2H-chromen-6-ylmethyl)benzenesulfonamide]	4.73
Cc1ccc(F)c(CNS(=O)(=O)c2ccc(Cc3ccc4oc(=O)cc(C(F)(F)F)c4c3)cc2)c1Cl [Example 200, N-(2-Chloro-6-fluoro-3-methylbenzyl)-4-(2-oxo-4-trifluoromethyl-2H-chromen-6-ylmethyl)benzenesulfonamide]	6.91
O=c1cc(C(F)(F)F)c2cc(Cc3ccc(S(=O)(=O)NCc4c(F)ccc(F)c4Cl)cc3)ccc2o1 [Example 202, N-(2-Chloro-3,6-difluorobenzyl)-4-(2-oxo-4-trifluoromethyl-2H-chromen-6-ylmethyl)benzenesulfonamide]	4.42
O=c1cc(C(F)(F)F)c2cc(Cc3ccc(S(=O)(=O)NCc4cc(C(F)(F)F)ccc4F)cc3)ccc2o1 [Example 204, N-(2-Fluoro-5-trifluoromethylbenzyl)-4-(2-oxo-4-trifluoromethyl-2H-chromen-6-ylmethyl)benzene-sulfonamide]	> 10
O=c1cc(C(F)(F)F)c2cc(Cc3ccc(S(=O)(=O)NCC(c4ccccc4)c4ccccc4)cc3)ccc2o1 [Example 206, N-(2,2-Diphenylethyl)-4-(2-oxo-4-trifluoromethyl-2H-chromen-6-ylmethyl)benzene-sulfonamide]	5.74

The next molecules have a lower IC50 than those just listed; values first:

IC50 [µM]	Compound
4.06	Cc1ccc(F)cc1CNS(=O)(=O)c1ccc(Cc2ccc3oc(=O)cc(C(F)(F)F)c3c2)cc1 [Example 185, N-(5-Fluoro-2-methylbenzyl)-4-(2-oxo-4-trifluoromethyl-2H-chromen-6-ylmethyl)-benzenesulfonamide]
4.04	O=c1cc(C(F)(F)F)c2cc(Cc3ccc(S(=O)(=O)NCc4ccccc4C(F)(F)F)cc3)ccc2o1 [Example 201, 4-(2-Oxo-4-trifluoromethyl-2H-chromen-6-ylmethyl)-N-(2-trifluoromethylbenzyl)-benzenesulfonamide]
3.44	O=C1CCCN1CCCNS(=O)(=O)c1ccc(Cc2ccc3oc(=O)cc(C(F)(F)F)c3c2)cc1 [Example 187, N-[3-(2-Oxopyrrolidin-1-yl)propyl]-4-(2-oxo-4-trifluoromethyl-2H-chromen-6-ylmethyl)benzenesulfonamide]
3.43	CCOC(=O)CC(NS(=O)(=O)c1ccc(Cc2ccc3oc(=O)cc(C(F)(F)F)c3c2)cc1)c1ccccc1 (centres unmarked) [Example 205, 3-[4-(2-Oxo-4-trifluoromethyl-2H-chromen-6-ylmethyl)-benzenesulfonylamino]-3-phenylpropionic acid ethyl ester]
2.51	O=c1cc(C(F)(F)F)c2cc(Cc3ccc(S(=O)(=O)NCc4ccc5c(c4)CCO5)cc3)ccc2o1 [Example 189, N-(2,3-Dihydrobenzofuran-5-ylmethyl)-4-(2-oxo-4-trifluoromethyl-2H-chromen-6-ylmethyl)benzenesulfonamide]
2.19	O=c1cc(C(F)(F)F)c2cc(Cc3ccc(S(=O)(=O)NCc4ccccc4Br)cc3)ccc2o1 [Example 203, N-(2-Bromobenzyl)-4-(2-oxo-4-trifluoromethyl-2H-chromen-6-ylmethyl)benzenesulfonamide]
2.06	CC(CNS(=O)(=O)c1ccc(Cc2ccc3oc(=O)cc(C(F)(F)F)c3c2)cc1)c1ccccc1 (centres unmarked) [Example 180, 4-(2-Oxo-4-trifluoromethyl-2H-chromen-6-ylmethyl)-N-(2-phenylpropyl)-benzenesulfonamide]
1.94	Cc1ccc(CNS(=O)(=O)c2ccc(Cc3ccc4oc(=O)cc(C(F)(F)F)c4c3)cc2)c(F)c1F [Example 197, N-(2,3-Difluoro-4-methylbenzyl)-4-(2-oxo-4-trifluoromethyl-2H-chromen-6-ylmethyl)benzenesulfonamide]
1.91	O=c1cc(C(F)(F)F)c2cc(Cc3ccc(S(=O)(=O)NCc4c(F)cccc4F)cc3)ccc2o1 [Example 188, N-(2,6-Difluorobenzyl)-4-(2-oxo-4-trifluoromethyl-2H-chromen-6-ylmethyl)benzenesulfonamide]
